Source: patent US7122668B2, “Platinum complexes and their use in therapy” (priority 2002, dated 2006)
Where two headings read alike, the source gives them in different places.

What was measured:
[1] = test system: C-26 cells; experiment: Determination of Pt-DNA adducts by FAAS; assay type: cell-based, human; conditions: C-26, 24 hr
Method: (§1) Cells were seeded for 48 hr before one of the drugs was added to the culture medium. After 24 hr of exposure, the complexes were removed and the cells washed twice with ice-cold PBS and pelleted. DNA from platinum-containing material (2*10^6 cells) was extracted from the cell pellet by QIAamp DNA Blood Kit (QIAGEN, Germany) according to the manufacture instructions. DNA yield was determined by measuring the concentration of DNA in the eluate by absorbance at 260 nm.

[2] = test system: OV-1063 cells; experiment: Determination of Pt-DNA adducts by FAAS; assay type: cell-based, human; conditions: OV-1063, 24 hr
Method: as §1

[3] = test system: OV-1063 cells; experiment: Methylene blue (MB) assay of cell survival; assay type: cell-based, human; conditions: mean ± SD
Method: (§2) A human ovarian carcinoma cell line (OV-1063), established at the Hadassah University hospital and human colon carcinoma cell line (C-26) were maintained in RPMI-1640 medium supplemented with 10% FCS, antibiotics and glutamine. All culture medium components were purchased from Biological Industries (Beit-HaEmek, Israel). Both cell lines were maintained at 37° C. in a water-jacketed CO2 incubator.
(§3) Cytotoxicity of the synthesized complexes was tested by the methylene blue (MB) staining assay^(19). A fixed number of exponentially growing cells in 200 μl medium were plated in 96-microwell, flat-bottomed plates. For each of the complexes tested, 4 well were used. Following 24 hr in culture, 20 μl of different concentration of the complexes were added to each well containing untreated cells. Normal saline was added to the controls. Cells were exposed to complexes for 4, 24, or 72 hr. At the end of exposure for a fixed time interval, the treated cells as well as parallel control cells were washed and incubation was continued in fresh medium until termination of the experiment. Following 72 hr of growth, cells were fixed by adding 50 μl of 2.5% of glutaraldehyde to each well for 15 min. Fixed cells were rinsed 10 times with fresh de-ionized water and once with borate buffer (0.1 M, pH=8.5), dried and stained with MB (100 μl of 1% solution in 0.1 M borate buffer, pH=8.5) for 1 hr at room temperature. Stained cells were rinsed thoroughly with de-ionized water to remove any non-cell-bound die and then dried. The MB bound to the fixed cells was extracted by incubation at 37° C. with 200 μl of 0.1N HCl for 1 hr, and the net optical density (OD) of the die in each well was determined by a plate spectrophotometer (Labsystems Multyskan BICHROMATIC, Finland) at 620 nm.

[4] = test system: caspase-3 in OV-1063 cells; experiment: EnzChek Caspase-3 assay; assay type: cell-based, human; conditions: cisplatin 2 μM, 5 or 16 hrs
From the text: (§4) (2) By the EnzChektm Caspase-3 Assay Kit (Molecular probes, Eugene, Oreg.). This Kit allows the detection of apoptosis by assaying for increases in caspase-3 and other DEVD-specific protease activities (e.g., caspase-7). The basis for the assay is rodamine 110 bis-(N-CBZ-aspartil-L-glutarnyl-L-valyl-aspartic acid amide) (Z-DEVD-R110). This substrate is a bisamide derivative of rhodamine 110(R110) containing DEVD peptides covalently linked to each of R110's amino groups. Upon enzymatic cleavage, the non-fluorescent bisamide substrate converted to the fluorescent R110, which can be quantified by fluorescence microplate reader using excitation at 485±10 nm and emission detection at 535±10 nm.
(§5) (12) (5 μM and 7.5 μM, respectively) for 5 or 16 hr. Both “induced” and “control” cells were then harvested and lysed. Enzyme reactions were performed in 96-well plates with 50 μg of cytosolic proteins (55 minutes of incubation) and with a final concentration of 25 μM Z-DEVD-R110 substrate as described in the kit protocol.

[5] = test system: caspase-3 in C-26 cells; experiment: EnzChek Caspase-3 assay; assay type: cell-based, human; conditions: 4.5 μM complex, cisplatin 1.5 μM, 5 or 16 hrs
From the text: as §4, §5

[6] = test system: C-26 colon carcinoma; experiment: In vivo antitumor efficacy; set-up: species or system BALB/C mice; conditions: 5 mg/kg, three injections at weekly intervals from day 3 after i.p. tumor inoculation
Method: Female BALB/C mice (in the weight range of 17–20 g) were injected i.p. with 1*10^6 C-26 colon carcinomas.
Treatment began at day 3 after tumor inoculation and was repeated twice for a total of three injections at weekly intervals.
Female BALB/C mice (in the weight range of 17–20 gr) were injected i.p. with 1*10^6 C-26 colon carcinomas.
Treatment was as performed according to the schedule described above.

[7] = test system: A2780; experiment: Microculture tetrazolium (MTS) cell survival assay; assay type: cell-based; conditions: 24 hours incubation
Method: (§6) Cytotoxicity of the synthesized complexes was also tested by the MTS method^(21). Accordingly, the compounds were incubated for 24 hours with the corresponding cell lines and the cell survival in compound-treated cultures was evaluated.
(§7) The complexes were incubated for 24 hours with the above mentioned cell lines and the cell survival in compound-treated cultures was evaluated by the (microculture tetrazolium) MTS method as previously reported.

[8] = test system: 41McisR; experiment: Microculture tetrazolium (MTS) cell survival assay; assay type: cell-based
Method: as §6, §7

[9] = test system: CH1cisR; experiment: Microculture tetrazolium (MTS) cell survival assay; assay type: cell-based
Method: as §6, §7

[10] = test system: CH1; experiment: Microculture tetrazolium (MTS) cell survival assay; assay type: cell-based; conditions: 24 hours incubation
Method: as §6, §7

[11] = test system: A2780cisR; experiment: Microculture tetrazolium (MTS) cell survival assay; assay type: cell-based
Method: as §6, §7

[12] = test system: 41M; experiment: Microculture tetrazolium (MTS) cell survival assay; assay type: cell-based; conditions: 24 hours incubation
Method: as §6, §7

[13] = test system: C-26 cells; experiment: Platinum complex intracellular accumulation (FAAS); assay type: cell-based, human; conditions: C-26, 24 hr
Method: (§8) Cells were seeded for 48 hr before one of the complexes was added to the culture medium. After 24 hr of exposure, the complexes were removed and the cells washed twice with ice-cold PBS and pelleted. The cells (1*10^6) were dried and mineralized by heating for 10 min in 65% HNO3 (BDH, England)^(22). Samples were dissolved in de-ionized water and each sample was measured at two different dilutions by flameless Zeeman atomic absorption spectrometer (FAAS). The calibration curves included 5 standards of K2PtCl4 stock solution with concentrations ranging from 50 to 250 ng platinum per ml. Platinum content was expressed as picomoles platinum per 1*10^6 cells.
(§9) The Pt content associated with the cells was measured by Atomic Absorption Spectroscopy (AAS).

[14] = test system: OV-1063 cells; experiment: Platinum complex intracellular accumulation (FAAS); assay type: cell-based, human; conditions: OV-1063, 24 hr
Method: as §8, §9

[15] = test system: C-26 cells; assay type: cell-based; conditions: C-26 cells, mean ± SD
Method: as §2, §3

[16] = test system: calf thymus DNA; experiment: DNA binding (calf thymus DNA platination); conditions: for ΔTm, 0.01M Na+ / ΔTm, 0.2 M / ΔΔεmax, maximum of the positive CD band at around 275 nm: rb = 0.05; for ΔΔεmax, maximum of the positive CD band at around 275 nm: difference between control and platinated DNA
Method: The formation of calf thymus DNA platination was also examined. To this end, calf thymus DNA was incubated with different compounds (Table 3) in which the following parameters were determined: […]

[17] = test system: Ubiquitin and Heart Myoglobin; conditions: 1:1 reaction, 1–2 mM, 10 mM phosphate buffer, pH 6.4, 37° C.
Method: Since most platinum(II) derivatives which are administered intravenously become protein bound within 24 hr, the binding kinetics of two model proteins, Ubiquitin (MW 8565) and Heart Myoglobin (MW 16951), to Pt complexes was determined. To this end, a 1:1 reaction between the platinum complexes and the proteins were carried out at 1–2 mM concentrations, in 10 mM phosphate buffer, pH 6.4 at 37° C. Protein binding kinetics were measured directly on the reaction mixtures, by Electrospray Ionization Mass Spectrometry (ESI-MS).

[18] = 4 h exposure, read-out: IC50, 4 h
[19] = 24 h exposure, read-out: IC50, 24 h
[20] = 72 h exposure, read-out: IC50, 72 h
[21] = listed as trans-[PtCl2(NH3)(pip)]

Compound: N.N.[Cl][Pt][Cl] [Cisplatin, cis-[PtCl2(NH3)2], reference compound]
- Pt-DNA adducts [1]: 149 pmol Pt/50 μg DNA
- Pt-DNA adducts [2]: 107 pmol Pt/50 μg DNA
- IC50 [3, 18]: 2000 ± 500 nM
- IC50 [3, 19]: 700 ± 200 nM
- IC50 [3, 20]: 500 ± 200 nM
- caspase-3 fluorescent signal [4]: No fluorescent signal
- caspase-3 fluorescent signal [5]: No fluorescent signal
- Increase in life span [6]: 108%
- Survival [6]: 24 ± 5 days
- IC50 [7]: 2200 nM
- resistance factor (IC50 resistant/IC50 sensitive) ([8]; 41McisR/41M): 4.1
- IC50 ([8]; 24 hours incubation, MTS): 107000 nM
- IC50 ([9]; 24 hours incubation, MTS): 23000 nM
- resistance factor (IC50 resistant/IC50 sensitive) ([9]; CH1cisR/CH1): 3.8
- IC50 [10]: 6000 nM
- IC50 ([11]; 24 hours incubation, MTS): 38000 nM
- resistance factor (IC50 resistant/IC50 sensitive) ([11]; A2780cisR/A2780): 17.3
- IC50 [12]: 26000 nM
- Penetration to cells [13]: 2244 pmol Pt/1 * 10^6 cells
- Penetration to cells [14]: 194 pmol Pt/1 * 10^6 cells
- IC50 [15, 18]: 1500 ± 1300 nM
- IC50 [15, 19]: 600 ± 100 nM
- IC50 [15, 20]: 200 ± 200 nM
- % IEC/adduct, frequency of interstrand crosslinks [16]: 6%
- unwinding angle per adduct [16]: 13°
- t1/2 half time of the binding to calf thymus DNA ([16]; 10 mM NaClO4, 37° C., ri = 0.08, differential pulse polarography): 1.67 h
- ΔTm, 0.01M Na+ [16]: −2.6 0.C
- ΔTm, 0.2 M [16]: −4.0 0.C
- ΔΔεmax, maximum of the positive CD band at around 275 nm [16]: 1.27

Compound: C1CCNCC1.N.[Cl][Pt][Cl] [Complex 1, Trans-[PtCl2(NH3)(piperidine)]]
- binding to the proteins [17]: binds rapidly
- % IEC/adduct, frequency of interstrand crosslinks [16, 21]: 26%
- unwinding angle per adduct [16, 21]: 52.8°
- ΔTm, 0.01M Na+ [16, 21]: +7.6 0.C
- ΔTm, 0.2 M [16, 21]: −1.9 0.C
- ΔΔεmax, maximum of the positive CD band at around 275 nm [16, 21]: 0.15
